Experimental data reported in patent US4732969A, “Des-19-leucine, 20-glutamine-calcitonin” (Armour Pharmaceutical Corporation, priority 1986, dated 1988).
Where a SMILES comes first, the peptide text is derived from it. Bridges are numbered along the chain shown (N, C = ends).

What was measured:
[1] = literature value, Experientia 32(9), 1104-1106 (1976); cited from earlier work
[2] = system: serum calcium concentration
Procedure: Biological Assay Of Calcitonin Analogs In Vivo
Rats were divided into four groups of seven animals, and each group was assigned at random to a dose of standard or test solution. Low and high doses were chosen from the linear portion of the dose-response curve. For the salmon calcitonin standard, the values were 0.7 and 2.1 ng. peptide/100 g. body weight (BW). This dose approximates 3 and 9 MU/100 g. BW. Peptides were given by subcutaneous injection (0.2 ml/100 g. BW) and blood was withdrawn 1 hour later for serum calcium determination. Sera are processed and analyzed within two hours of collection. Results were analyzed within two hours of collection.

| Compound | hypocalcemic potency [1] | other results |
| --- | --- | --- |
| (1,7-α-L-aminosuberic acid)eel calcitonin | about 3400 IU/mg | – |
| CC(C)C[C@H](NC(=O)[C@H](CCCCN)NC(=O)CNC(=O)[C@H](CC(C)C)NC(=O)[C@@H](NC(=O)[C@@H]1CSSC[C@H](N)C(=O)N[C@@H](CO)C(=O)N[C@@H](CC(N)=O)C(=O)N[C@@H](CC(C)C)C(=O)N[C@@H](CO)C(=O)N[C@@H]([C@@H](C)O)C(=O)N1)C(C)C)C(=O)N[C@@H](CO)C(=O)N[C@@H](CCC(N)=O)C(=O)N[C@@H](CCC(=O)O)C(=O)N[C@@H](CC(C)C)C(=O)N[C@@H](Cc1c[nH]cn1)C(=O)N[C@@H](CCCCN)C(=O)N[C@@H](CC(C)C)C(=O)N[C@@H](CCC(N)=O)C(=O)N[C@H](C(=O)N[C@@H](Cc1ccc(O)cc1)C(=O)N1CCC[C@H]1C(=O)N[C@@H](CCCNC(=N)N)C(=O)N[C@H](C(=O)N[C@@H](CC(N)=O)C(=O)N[C@H](C(=O)NCC(=O)N[C@@H](CO)C(=O)NCC(=O)N[C@H](C(=O)N1CCC[C@H]1C(N)=O)[C@@H](C)O)[C@@H](C)O)[C@@H](C)O)[C@@H](C)O [standard salmon calcitonin, salmon calcitonin] | – | potency content of the standard ([2]; standard used in the assay, independently determined): greater than 4,000 IU/mg |
| eel calcitonin [synthetic eel calcitonin] | around 4300 IU/mg | – |
| CC(C)C[C@H](NC(=O)[C@H](CCCCN)NC(=O)CNC(=O)[C@H](CC(C)C)NC(=O)[C@@H](NC(=O)[C@@H]1CSSC[C@H](N)C(=O)N[C@@H](CO)C(=O)N[C@@H](CC(N)=O)C(=O)N[C@@H](CC(C)C)C(=O)N[C@@H](CO)C(=O)N[C@@H]([C@@H](C)O)C(=O)N1)C(C)C)C(=O)N[C@@H](CO)C(=O)N[C@@H](CCC(N)=O)C(=O)N[C@@H](CCC(=O)O)C(=O)N[C@@H](CC(C)C)C(=O)N[C@@H](Cc1c[nH]cn1)C(=O)N[C@@H](CCCCN)C(=O)N[C@H](C(=O)N[C@@H](Cc1ccc(O)cc1)C(=O)N1CCC[C@H]1C(=O)N[C@@H](CCCNC(=N)N)C(=O)N[C@H](C(=O)N[C@@H](CC(N)=O)C(=O)N[C@H](C(=O)NCC(=O)N[C@@H](CO)C(=O)NCC(=O)N[C@H](C(=O)N1CCC[C@H]1C(N)=O)[C@@H](C)O)[C@@H](C)O)[C@@H](C)O)[C@@H](C)O [des-Leu^19 -Gln^20 -SCT, des-19-leucine, 20-glutamine-salmon calcitonin] (H-CSNLSTCVLGKLSQELHKTYPRTNTGSGTP-NH2; disulfide 1-7) | – | biological potency ([2]; rat, in vivo, sc): 6900 IU/mg |
